Data published in publication PMC8126654, “Novel Pan-Pim Kinase Inhibitors With Imidazopyridazine and Thiazolidinedione Structure Exert Potent Antitumor Activities” (Frontiers in Pharmacology, 2021).

Key:
cancer cell lines = assay: Cytotoxicity assay for cell survival (cancer cell proliferation); assay type: cell-based; conditions: 96 hours; read-out: IC50 for proliferation of a broad spectrum of cancer cell lines (range)
Source text: We obtained colon cancer HCT116 and HT-29 cells, prostate cancer PC-3, DU145, and LNCaP cells, lung cancer NCI-H460 and NCI-H522 cells, breast cancer MDA-MB-231 cells, AML MV-4-11 cells, and chronic myeloid leukemia (CML) K-562, MEG-01, and KU812 cells from American Type Culture Collection (Manassas, VA, United States); stomach cancer MKN45 cells from the Health Science Research Resources Bank (Osaka, Japan); pancreatic cancer AsPC-1 and MIA PaCa-2, and lung cancer A549 cells from DS Pharma Biomedical (Osaka, Japan). All cell lines were cultured in RPMI1640 medium (Life Technologies; Thermo Fisher Scientific Inc.) with 10% (v/v) fetal bovine serum (FBS; Sigma-Aldrich; Merck KgaA) at 37°C in 5% CO2.
Cells were seeded in 96-well plates and test compounds were added to the cultures at several concentrations.

MV-4-11 = assay: Immunoblot analysis of phosphorylation of Pim kinase substrates, MV-4-11; assay type: cell-based; conditions: MV-4-11, 4 h
Protocol: Cells were plated overnight and then treated with test compounds for 4 hours. Then, the cells were lyzed in solubilization buffer [10 mM Tris-HCl (pH7.4), 0.1% (w/v) NP-40, 0.1% (w/v) sodium deoxycholate, 0.1% (w/v) SDS, 0.15 M NaCl, 1 mM EDTA, 10 µM aprotinin] with phosphatase inhibitor cocktails (Nakarai Tesque, Kyoto, Japan), and subjected to SDS-PAGE using 15% (w/v) gels under reducing conditions. The separated proteins were electrotransferred to Immobilon transfer membranes (Merck Millipore, Darmstadt, Germany). Then, each membrane was reacted with primary antibodies, which were subsequently complexed with appropriate horseradish peroxidase-conjugated secondary antibodies. Signals were detected using the ECL Western Blotting Detection System (GE Healthcare Life Sciences) and protein expression was quantified with a LAS-3000 Luminescent Image Analyzer (GE Healthcare Life Sciences). The protein bands were quantified using ImageQuant TL software (GE Healthcare Life Sciences).

Pim-1, 2, and 3 = assay: Kinetic assay (Lineweaver-Burk analysis); assay type: biochemical
Protocol: Enzyme kinetic experiments were performed at pH 7.5 in 50 mM HEPES buffer with 1 mM EGTA, 10 mM MgCl2, and 0.01% Brij-35. […] Plates were immediately placed into a Caliper LabChip EZ Reader II (PerkinElmer Inc.) and wells were sampled periodically throughout an 1-hour reaction period for initial reaction rate. The fluorescent product and substrate were separated and monitored on a Caliper microfluidic instrument. The conversion of substrate was calculated with Caliper software. Ki values were determined from the double reciprocal Lineweaver-Burk plot.

Phosphorylation level of 4EBP (MV-4-11): decreased
Structure (SMILES): CN1CCN(c2ccc(-c3cnc4ccc(/C=C5\SC(=O)NC5=O)nn34)cc2)CC1 [YPC-21440, (Z)-5-([3-{4-(4-methylpiperazin-1-yl)phenyl}imidazo[1,2-b]pyridazin-6-yl]methylene)thiazolidine-2,4-dione]
IC50 (cancer cell lines): 27 to 1000 nM
Mode of inhibition of Pim kinases (Lineweaver-Burk) (Pim-1, 2, and 3): ATP competitive manner
